Experimental data as given in ChEMBL document CHEMBL2040836, “1,3,8-Triazaspiro[4.5]decane-2,4-diones as efficacious pan-inhibitors of hypoxia-inducible factor prolyl hydroxylase 1-3 (HIF PHD1-3) for the treatment of anemia” (J Med Chem, 2012).

Key:
in vivo [1] = conditions: Sprague-Dawley, rat
in vivo [2] = conditions: Sprague-Dawley, rat; remark: listed apart in the source
in vivo [3] = conditions: Sprague-Dawley, rat; remark: listed apart in the source
in vivo [4] = conditions: Sprague-Dawley, rat, po
in vivo [5] = conditions: Sprague-Dawley, rat; remark: listed apart in the source
[6] = AUC in Sprague-Dawley rat; type: ADME, organism-based; set-up: concentration or dose not given beside the values; conditions: plasma
Mus musculus [7] = test: Toxicity in C57BL/6 mouse assessed as increase in liver ALT level at 50 mg/kg, iv; type: organism-based; set-up: dose 50 mg/kg, route intravenous; conditions: in vivo
[8] = Metabolic stability in rat liver microsomes assessed as compound remaining after 30 mins; type: ADME, Microsome; conditions: read-out: Stability
Mus musculus [9] = test: Toxicity in C57BL/6 mouse assessed as increase in liver ALT level at 15 mg/kg, iv; type: organism-based; set-up: dose 15 mg/kg, route intravenous; conditions: in vivo
[10] = Oral bioavailability in dog; type: ADME, organism-based, Canis lupus familiaris; conditions: in vivo
[11] = Volume of distribution at steady state in dog; type: ADME, organism-based, Canis lupus familiaris; conditions: in vivo, read-out: Vdss
Mus musculus [12] = test: Volume of distribution at steady state in mouse at 5 mg/kg, po; type: ADME, organism-based; set-up: dose 5 mg/kg, route oral; conditions: in vivo
[13] = Half life in dog; type: ADME, organism-based, Canis lupus familiaris; conditions: in vivo
[14] = (§1) Half life in mouse at 5 mg/kg, po; type: ADME, organism-based; set-up: dose 5 mg/kg, route oral; conditions: in vivo
[15] = AUC in dog; type: ADME, organism-based, Canis lupus familiaris; conditions: plasma
[16] = Clearance in dog; type: ADME, organism-based, Canis lupus familiaris; conditions: in vivo
[17] = Clearance in mouse at 5 mg/kg, po; type: ADME, organism-based; set-up: dose 5 mg/kg, route oral; conditions: in vivo
[18] = AUC in mouse at 5 mg/kg, po; type: ADME, organism-based; set-up: dose 5 mg/kg, route oral; conditions: plasma
[19] = Cmax in dog; type: ADME, organism-based, Canis lupus familiaris; conditions: in vivo
[20] = Cmax in mouse at 5 mg/kg, po; type: ADME, organism-based; set-up: dose 5 mg/kg, route oral; conditions: in vivo
[21] = Oral bioavailability in mouse at 5 mg/kg; type: ADME, organism-based; conditions: in vivo
Mus musculus [22] = test: as §1; type: ADME, organism-based; set-up: dose 5 mg/kg, route oral; conditions: in vivo
[23] = Toxicity in iv dosed C57BL/6 mouse assessed as no observable effect level; type: organism-based; conditions: in vivo

Cc1cccnc1CN1CCC2(CC1)C(=O)N(c1ccc(-c3ccccc3)cc1)C(=O)N2c1ccnc(O)n1
clearance (in vivo [1]): 0.84 L/h/kg
half-life (in vivo [2]): 1.2 h
Cmax (in vivo [3]): 1.3 µM
bioavailability (in vivo [4]): 39%
Vd (in vivo [5]): 0.9 L/kg

Cc1cccnc1CN1CCC2(CC1)C(=O)N(c1ccc(-c3ccccc3)cc1)c1ccccc12
clearance (in vivo [1]): 1.8 L/h/kg
half-life (in vivo [2]): 3 h
Cmax (in vivo [3]): 0.079 µM
AUC [6]: 1200 nM·h
bioavailability (in vivo [4]): 11%
Vd (in vivo [5]): 8.2 L/kg

Cc1cccnc1CN1CCC2(CC1)C(=O)N(c1ccc(-c3ccccc3)cc1)C(=O)N2c1cc(O)ccn1
clearance (in vivo [1]): 2.1 L/h/kg
half-life (in vivo [2]): 0.5 h
Cmax (in vivo [3]): 0.34 µM
bioavailability (in vivo [4]): 49%
Vd (in vivo [5]): 1.4 L/kg

COc1cc(N2C(=O)N(c3ccc(-c4ccc(C(N)=O)cc4)cc3)C(=O)C23CCN(Cc2ncccc2C)CC3)ncn1
fold change (FC) (Mus musculus [7]): 6.6

Cc1cccnc1CN1CCC2(CC1)NC(=O)N(c1ccc(-c3ccccc3)cc1)C2=O
clearance (in vivo [1]): 16.5 L/h/kg
half-life (in vivo [2]): 0.12 h
Cmax (in vivo [3]): 0.017 µM
AUC [6]: 140 nM·h
bioavailability (in vivo [4]): 42%
Vd (in vivo [5]): 2.6 L/kg

Cn1ccnc1CN1CCC2(CC1)C(=O)N(c1cnc3ccccc3c1)c1ccccc12
remaining at 0.5 h [8]: < 10%

COc1cc(N2C(=O)N(c3ccc(-c4cccc(C(=O)O)c4)cc3)C(=O)C23CCN(Cc2ncccc2C)CC3)ncn1
fold change (FC) (Mus musculus [9]): 6.1

Cc1cccnc1CN1CCC2(CC1)C(=O)N(c1ccc(-c3ccccc3)cc1)C(=O)N2c1ncccn1
clearance (in vivo [1]): 3.06 L/h/kg
half-life (in vivo [2]): 1.1 h
Cmax (in vivo [3]): 0.101 µM
bioavailability (in vivo [4]): 18%
Vd (in vivo [5]): 2.1 L/kg

Cc1cccnc1CN1CCC2(CC1)C(=O)N(c1ccc(-c3ccccc3)cc1)C(=O)N2c1nccc(O)n1
bioavailability [10]: 26%
clearance (in vivo [1]): 0.54 L/h/kg
half-life (in vivo [2]): 1.1 h
Vd [11]: 1.1 L/kg
Cmax (in vivo [3]): 0.99 µM
Vdss (Mus musculus [12]): 1.3 L/kg
half-life [13]: 13 h
half-life [14]: 1.4 h
AUC [15]: 41000 nM·h
clearance [16]: 0.078 L/h/kg
CL/F [17]: 0.78 L/h/kg
AUC [6]: 3700 nM·h
AUC [18]: 1400 nM·h
Cmax [19]: 1.5 µM
Cmax [20]: 0.99 µM
bioavailability [21]: 78%
bioavailability (in vivo [4]): 66%
Vd (in vivo [5]): 0.72 L/kg

Cc1cccnc1CN1CCC2(CC1)C(=O)N(c1ccc(-c3ccc(C(=O)O)cc3)cc1)C(=O)N2c1ncccn1
clearance (in vivo [1]): 3.06 L/h/kg
half-life (in vivo [2]): 1.1 h
Cmax (in vivo [3]): 0.1 µM
bioavailability (in vivo [4]): 18%
Vd (in vivo [5]): 2.2 L/kg

COc1cc(N2C(=O)N(c3ccc(-c4ccc(C(=O)O)cc4)cc3)C(=O)C23CCN(Cc2ncccc2C)CC3)ncn1
clearance (in vivo [1]): 0.528 L/h/kg
half-life (in vivo [2]): 2.6 h
Cmax (in vivo [3]): 1.9 µM
Vdss (Mus musculus [12]): 0.4 L/kg
half-life [14]: 3.7 h
CL/F [17]: 0.072 L/h/kg
Cmax [20]: 6.1 µM
bioavailability [21]: 36%
bioavailability (in vivo [4]): 92%
Vd (in vivo [5]): 1.7 L/kg

Cc1cccnc1CN1CCC2(NC(=O)N(c3ccc(-c4ccccc4)cc3)C2=O)C(C(=O)O)C1 (stereo unspecified)
clearance (in vivo [1]): 0.66 L/h/kg
half-life (in vivo [2]): 1.1 h
Cmax (in vivo [3]): 0.04 µM
AUC [6]: 3200 nM·h
bioavailability (in vivo [4]): 14%
Vd (in vivo [5]): 0.58 L/kg

Cc1cccnc1CN1CCC2(CC1)C(=O)N(c1cnc3ccccc3c1)c1ccccc12
remaining at 0.5 h [8]: 35%

Cc1cccnc1CN1CCC2(C(=O)N(c3ccc(-c4ccccc4)cc3)C(=O)N2c2cc(O)ncn2)C(C(=O)O)C1 (stereo unspecified)
clearance (in vivo [1]): 0.072 L/h/kg
half-life (in vivo [2]): 3.6 h
Cmax (in vivo [3]): 0.063 µM
Vdss (Mus musculus [12]): 0.4 L/kg
t1/2 (Mus musculus [22]): 2.1 h
Cmax [20]: 0.3 µM
bioavailability [21]: 7.1%
bioavailability (in vivo [4]): 4.3%
Vd (in vivo [5]): 0.34 L/kg

Cc1cccnc1CN1CCC2(CC1)C(=O)N(c1ccc(-c3ccccc3)cc1)C(=O)N2c1ccc(O)nn1
clearance (in vivo [1]): 2.4 L/h/kg
half-life (in vivo [2]): 1.2 h
Cmax (in vivo [3]): 0.3 µM
bioavailability (in vivo [4]): 58%
Vd (in vivo [5]): 1.1 L/kg

Cc1cccnc1CN1CCC2(CC1)C(=O)N(c1ccc(-c3ccccc3)cc1)c1ncccc12
clearance (in vivo [1]): 3.54 L/h/kg
half-life (in vivo [2]): 1.9 h
Cmax (in vivo [3]): 0.04 µM
AUC [6]: 600 nM·h
bioavailability (in vivo [4]): 0%
Vd (in vivo [5]): 8 L/kg

Cc1cc(C(=O)O)ccc1-c1ccc(N2C(=O)N(c3cnccn3)C3(CCN(Cc4ncccc4C)CC3)C2=O)cc1
clearance (in vivo [1]): 1.32 L/h/kg
half-life (in vivo [2]): 1.5 h
Cmax (in vivo [3]): 0.39 µM
bioavailability (in vivo [4]): 29%
Vd (in vivo [5]): 1.6 L/kg

COc1cc(N2C(=O)N(c3ccc(-c4ccc(C(=O)O)cc4C)cc3)C(=O)C23CCN(Cc2ncccc2C)CC3)ncn1
clearance (in vivo [1]): 0.714 L/h/kg
half-life (in vivo [2]): 4.1 h
Cmax (in vivo [3]): 0.57 µM
NOAEL [23]: 50 mg/kg
bioavailability (in vivo [4]): 64%
Vd (in vivo [5]): 4.3 L/kg

Cc1cccnc1CN1CCC2(CC1)C(=O)N(c1ccc(-c3ccc(C(=O)O)cc3)cc1)C(=O)N2c1ccncn1
clearance (in vivo [1]): 0.96 L/h/kg
half-life (in vivo [2]): 2.2 h
Cmax (in vivo [3]): 0.58 µM
bioavailability (in vivo [4]): 8%
Vd (in vivo [5]): 2 L/kg

Cc1cc(C(=O)O)ccc1-c1ccc(N2C(=O)N(c3ccncn3)C3(CCN(Cc4ncccc4C)CC3)C2=O)cc1
clearance (in vivo [1]): 2.04 L/h/kg
half-life (in vivo [2]): 1.1 h
Cmax (in vivo [3]): 0.39 µM
bioavailability (in vivo [4]): 47%
Vd (in vivo [5]): 1.9 L/kg
